Test results reported in patent publication US20210068395A1, “METHODS OF APPLYING ONE OR MORE CERTAIN HETEROARYL-1,2,4-TRIAZOLE AND HETEROARYL-TETRAZOLE COMPOUNDS TO CONTROL DAMAGE ON PLANTS, PROPAGATION MATERIAL THEREOF, AND PLANT DERIVED PRODUCTS” (SYNGENTA CROP PROTECTION AG, priority 2018, published 2021).
Where two headings read alike, the source gives them in different places.

Key:
Format in all cases: in vivo
[1] = test system: Spodoptera littoralis (Egyptian Cotton Leaf Worm); assay: Spodoptera littoralis feeding/contact activity; conditions: foliar, 72 h, read-out: control in at least one of the three categories (mortality or growth inhibition or anti-feeding)
Description: Cotton leaf discs were placed onto agar in 24-well microtiter plates and sprayed with aqueous test solutions prepared from 10,000 ppm DMSO stock solutions. After drying the leaf discs were infested with five L1 larvae. The samples were assessed for mortality, anti-feeding and growth inhibition 3 days after infestation.

[2] = test system: Plutella xylostella (Diamond Back Moth); assay: Plutella xylostella feeding/contact activity, 24-well artificial diet; conditions: 192 h, read-out: control in at least one of the two categories (mortality or growth inhibition)
Description: 24-well microtiter plates with artificial diet were treated with aqueous test solutions prepared from 10,000 ppm DMSO stock solutions by pipetting. After drying, Plutella eggs were pipetted through a plastic stencil onto a gel blotting paper and the plate was closed with it. The samples were assessed for mortality and growth inhibition in comparison to untreated samples 8 days after infestation.

[3] = test system: Diabrotica balteata (corn root worm); assay: Diabrotica balteata (corn root worm), sprayed maize sprouts; conditions: 96 h, read-out: control in at least one of the two categories (mortality or growth inhibition)
Description: Maize sprouts placed onto an agar layer in 24-well microtiter plates were treated with aqueous test solutions prepared from 10,000 ppm DMSO stock solutions by spraying. After drying, the plates were infested with L2 larvae (6 to 8 per well). The samples were assessed for mortality and growth inhibition in comparison to untreated samples 4 days after infestation.

[4] = test system: Plutella xylostella (Diamond Back Moth); assay: Plutella xylostella feeding/contact activity, 96-well artificial diet; conditions: 216 h, application rate 500 ppm, 9 days after infestation
Description: 1, 2, 3, 4, 17, 19, 23, 26, 39, 41, 42, 54, 55, 56 Plutella xylostella (Diamond Back Moth):Feeding/Contact Activity 96-well microtiter plates containing artificial diet were treated with aqueous test solutions, prepared from 10,000 ppm DMSO stock solutions, by a liquid handling robot. After drying, eggs (˜30 per well) were infested onto a netted lid which was suspended above the diet. The eggs hatch and L1 larvae move down to the diet. The samples were assessed for mortality 9 days after infestation.

[5] = test system: Thrips tabaci (Onion thrips); assay: Thrips tabaci feeding/contact activity; conditions: foliar, 144 h, read-out: control in at least one of the two categories (mortality or anti-feeding)
Description: Sunflower leaf discs were placed on agar in 24-well microtiter plates and sprayed with aqueous test solutions prepared from 10,000 ppm DMSO stock solutions. After drying the leaf discs were infested with a thrips population of mixed ages. The samples were assessed for mortality, and anti-feeding 6 days after infestation.

[6] = test system: Euschistus heros (Neotropical Brown Stink Bug); assay: Euschistus heros feeding/contact activity; conditions: 120 h, read-out: control in at least one of the two categories (mortality or growth inhibition)
Description: Soybean leaves on agar in 24-well microtiter plates were sprayed with aqueous test solutions prepared from 10,000 ppm DMSO stock solutions. After drying the leaves were infested with N2 nymphs. The samples were assessed for mortality and growth inhibition 5 days after infestation.

[7] = test system: Myzus persicae (Green Peach Aphid); assay: Myzus persicae feeding activity (sucrose solution, Parafilm); conditions: 120 h, test rate 12.5 ppm, in sucrose solution, 5 days after infestation
Description: Test compounds prepared from 10,000 ppm DMSO stock solutions were applied by pipette into 24-well microtiter plates and mixed with sucrose solution. The plates were closed with a stretched Parafilm. A plastic stencil with 24 holes was placed onto the plate and infested pea seedlings were placed directly on the Parafilm. The infested plate was closed with a gel blotting paper and another plastic stencil and then turned upside down. The samples were assessed for mortality 5 days after infestation.

[8] = test system: Spodoptera littoralis (Egyptian Cotton Leaf Worm); assay: Spodoptera littoralis systemic activity (lettuce); conditions: 144 h, test rate 12.5 ppm, root uptake in lettuce, 6 days after infestation, read-out: control in at least one of the three categories (mortality or growth inhibition or anti-feeding)
Source text: Test compounds were applied by pipette prepared from 10,000 ppm DMSO stock solutions into 24-well plates and mixed with agar. Lettuce seeds were placed onto the agar and the multi well plate was closed by another plate which contained also agar. After 7 days the compound was absorbed by the roots and the lettuce grew into the lid plate. The lettuce leaves were then cut off into the lid plate. Spodoptera eggs were pipetted through a plastic stencil onto a humid gel blotting paper and the lid plate was closed with it. The samples were assessed for mortality, anti-feeding and growth inhibition 6 days after infestation.

[9] = test system: Myzus persicae (Green Peach Aphid); assay: Myzus persicae systemic activity; conditions: 144 h, test rate 24 ppm, roots of pea seedlings in test solution, 6 days
Description: Roots of pea seedlings infested with an aphid population of mixed ages were placed directly into aqueous test solutions prepared from 10,000 DMSO stock solutions. The samples were assessed for mortality 6 days after placing seedlings into test solutions.

[10] = test system: Myzus persicae (Green Peach Aphid); assay: Myzus persicae feeding/contact activity; conditions: foliar, 144 h, application rate 200 ppm, sunflower leaf discs sprayed, 6 days after infestation
Description: Sunflower leaf discs were placed onto agar in a 24-well microtiter plate and sprayed with aqueous test solutions prepared from 10,000 ppm DMSO stock solutions. After drying, the leaf discs were infested with an aphid population of mixed ages. The samples were assessed for mortality 6 days after infestation.

[11] = application rate 200 ppm, L1 larvae on cotton leaf discs, 3 days after infestation
[12] = application rate 200 ppm, 24-well artificial diet, 8 days after infestation
[13] = application rate 200 ppm, L2 larvae, 4 days after infestation
[14] = application rate 200 ppm, sunflower leaf discs, 6 days after infestation
[15] = application rate 200 ppm, N2 nymphs on soybean leaves, 5 days after infestation

C[C@@H](c1ncnn1-c1ncccn1)N(C)C(=O)c1cc(C(F)(F)F)cc(C(F)(F)F)c1 [Compound 6]
≥ 80%: percent control (mortality, anti-feedant effect or growth inhibition) at 200 ppm [1, 11] | percent control (mortality or growth inhibition) at 200 ppm [2, 12] | percent control (mortality or growth inhibition) at 200 ppm [3, 13]

COC(=O)c1nc(C(C)NC(=O)c2cc(C(F)(F)F)cc(C(F)(F)F)c2)n(-c2ncccn2)n1 (stereo not shown) [Compound 7]
≥ 80%: percent control (mortality, anti-feedant effect or growth inhibition) at 200 ppm [1, 11] | percent control (mortality or growth inhibition) at 200 ppm [2, 12] | mortality at 500 ppm [4] | percent control (mortality or growth inhibition) at 200 ppm [3, 13] | percent control (mortality, anti-feedant effect or growth inhibition) at 200 ppm [5, 14]

CCOC(OCC)c1nc(C(C)NC(=O)c2cc(C(F)(F)F)cc(C(F)(F)F)c2)n(-c2ncccn2)n1 (stereo not shown) [Compound 8]
≥ 80%: percent control (mortality or growth inhibition) at 200 ppm [2, 12] | mortality at 500 ppm [4] | percent control (mortality or growth inhibition) at 200 ppm [3, 13]

CC(c1ncnn1-c1ncccn1)N(C[Si](C)(C)C)C(=O)c1cc(C(F)(F)F)cc(C(F)(F)F)c1 (stereo not shown) [Compound 16]
≥ 80%: percent control (mortality, anti-feedant effect or growth inhibition) at 200 ppm [1] | percent control (mortality or growth inhibition) at 200 ppm ([6]; in Glycine max) | percent control (mortality or growth inhibition) at 200 ppm [2] | percent control (mortality or growth inhibition) at 200 ppm [3] | percent control (mortality, anti-feedant effect or growth inhibition) at 200 ppm [5]

CC(c1ncnn1-c1ncccn1)N(CC1CC1)C(=O)c1cc(Br)cc(C(F)(F)F)c1 (stereo not shown) [Compound 19]
≥ 80%: percent control (mortality, anti-feedant effect or growth inhibition) at 200 ppm [1, 11] | mortality at 12.5 ppm [7] | percent control (mortality or growth inhibition) at 200 ppm [6, 15] | percent control (mortality or growth inhibition) at 200 ppm [2, 12] | mortality at 500 ppm [4] | percent control (mortality or growth inhibition) at 200 ppm [3, 13]

CC(c1ncnn1-c1ncccn1)N(CC1CC1)C(=O)c1cc(Cl)cc(C(F)(F)F)c1 (stereo not shown) [Compound 23]
≥ 80%: percent control (mortality, anti-feedant effect or growth inhibition) at 200 ppm [1, 11] | mortality at 12.5 ppm [7] | percent control (mortality or growth inhibition) at 200 ppm [2, 12] | mortality at 500 ppm [4] | percent control (mortality or growth inhibition) at 200 ppm [3, 13] | percent control (mortality, anti-feedant effect or growth inhibition) at 12.5 ppm [8]

COc1cnc(-n2ncnc2C(C)N(CC2CC2)C(=O)c2cc(C(F)(F)F)cc(C(F)(F)F)c2)nc1 (stereo not shown) [Compound 24]
≥ 80%: percent control (mortality or growth inhibition) at 200 ppm [2, 12] | percent control (mortality or growth inhibition) at 200 ppm [3, 13]

CC(c1ncnn1-c1ncccn1)N(CC1CC1)C(=O)c1cccc(C#N)c1 (stereo not shown) [Compound 25]
≥ 80%: percent control (mortality or growth inhibition) at 200 ppm [3, 13]

CC(c1ncnn1-c1ncccn1)N(CC1CC1)C(=O)c1cc(C(F)(F)F)nc(C(F)(F)F)c1 (stereo not shown) [Compound 41]
≥ 80%: percent control (mortality, anti-feedant effect or growth inhibition) at 200 ppm [1, 11] | mortality at 12.5 ppm [7] | percent control (mortality or growth inhibition) at 200 ppm [6, 15] | percent control (mortality or growth inhibition) at 200 ppm [2, 12] | mortality at 500 ppm [4] | percent control (mortality or growth inhibition) at 200 ppm [3, 13] | percent control (mortality, anti-feedant effect or growth inhibition) at 200 ppm [5, 14]

CC(c1ncnn1-c1ncccn1)N(CC1CC1)C(=O)c1cc(C#N)cc(C(F)(F)F)c1 (stereo not shown) [Compound 42]
≥ 80%: percent control (mortality, anti-feedant effect or growth inhibition) at 200 ppm [1, 11] | mortality at 24 ppm [9] | mortality at 12.5 ppm [7] | percent control (mortality or growth inhibition) at 200 ppm [6, 15] | percent control (mortality or growth inhibition) at 200 ppm [2, 12] | mortality at 500 ppm [4] | percent control (mortality or growth inhibition) at 200 ppm [3, 13] | percent control (mortality, anti-feedant effect or growth inhibition) at 200 ppm [5, 14]

CC(c1ncnn1-c1ncccn1)N(CC1CC1)C(=O)c1cncc(C(F)(F)F)c1 (stereo not shown) [Compound 47]
≥ 80%: percent control (mortality or growth inhibition) at 200 ppm [6, 15] | mortality at 500 ppm [4] | percent control (mortality or growth inhibition) at 200 ppm [3, 13]

CC(c1ncnn1-c1ncccn1)N(CCCF)C(=O)c1cc(C(F)(F)F)cc(C(F)(F)F)c1 (stereo not shown) [Compound 54]
≥ 80%: percent control (mortality, anti-feedant effect or growth inhibition) at 200 ppm [1, 11] | mortality at 12.5 ppm [7] | mortality at 200 ppm [10] | percent control (mortality or growth inhibition) at 200 ppm [2, 12] | percent control (mortality or growth inhibition) at 200 ppm [3, 13]

CC(c1ncnn1-c1ncccn1)N(CCC(F)(F)F)C(=O)c1cc(C(F)(F)F)cc(C(F)(F)F)c1 (stereo not shown) [Compound 55]
≥ 80%: percent control (mortality, anti-feedant effect or growth inhibition) at 200 ppm [1, 11] | mortality at 12.5 ppm [7] | percent control (mortality or growth inhibition) at 200 ppm [6, 15] | mortality at 200 ppm [10] | percent control (mortality or growth inhibition) at 200 ppm [2, 12] | mortality at 500 ppm [4] | percent control (mortality or growth inhibition) at 200 ppm [3, 13] | percent control (mortality, anti-feedant effect or growth inhibition) at 12.5 ppm [8] | percent control (mortality, anti-feedant effect or growth inhibition) at 200 ppm [5, 14]

CC(c1ncnn1-c1ncccn1)N(CCF)C(=O)c1cc(C(F)(F)F)cc(C(F)(F)F)c1 (stereo not shown) [Compound 56]
≥ 80%: percent control (mortality, anti-feedant effect or growth inhibition) at 200 ppm [1, 11] | mortality at 24 ppm [9] | mortality at 12.5 ppm [7] | percent control (mortality or growth inhibition) at 200 ppm [6, 15] | mortality at 200 ppm [10] | percent control (mortality or growth inhibition) at 200 ppm [2, 12] | mortality at 500 ppm [4] | percent control (mortality or growth inhibition) at 200 ppm [3, 13] | percent control (mortality, anti-feedant effect or growth inhibition) at 12.5 ppm [8]

CC(c1ncnn1-c1ccccn1)N(CC1COC1)C(=O)c1cc(C(F)(F)F)cc(C(F)(F)F)c1 (stereo not shown) [Compound 62]
≥ 80%: percent control (mortality or growth inhibition) at 200 ppm [3, 13]
